How the values were obtained:
rgRSV224 virus = assay: Antiviral activity: rgRSV224 (GFP-expressing RSV) replication in HeLa cells, GFP expression measured three days post-virus exposure; format: cell-based; conditions: human respiratory syncytial virus, 72 h, read-out: WT activity pEC50 (converted)
Procedure: (§1) Black 96-well clear-bottom microtiter plates (Corning, Amsterdam, The Netherlands) were filled in duplicate using a customized robot system with serial 4-fold dilutions of compound in a final volume of 50 μl culture medium [RPMI medium without phenol red, 10% FBS, 0.04% gentamycin (50 mg/ml) and 0.5% DMSO]. Then, 100 μl of a HeLa cell suspension (5×10^4 cells/ml) in culture medium was added to each well followed by the addition of 50 μl rgRSV224 (MOI=0.02) virus in culture medium using a multidrop dispenser (Thermo Scientific, Erembodegem, Belgium). rgRSV224 virus is an engineered virus that includes an additional GFP gene (Hallak et al, 2000) and was in-licensed from the NIH (Bethesda, Md., USA). Medium, virus- and mock-infected controls were included in each test. Cells were incubated at 37° C. in a 5% CO2 atmosphere. Three days post-virus exposure, viral replication was quantified by measuring GFP expression in the cells by a MSM laser microscope (Tibotec, Beerse, Belgium). The EC50 was defined as the 50% inhibitory concentration for GFP expression. In parallel, compounds were incubated for three days in a set of white 96-well microtitier plates (Corning) and the cytotoxicity of compounds in HeLa cells was determined by measuring the ATP content of the cells using the ATPlite kit (PerkinElmer, Zaventem, Belgium) according to the manufacturer's instructions. The CC50 was defined as the 50% concentration for cytotoxicity.

in vitro = format: cell-based; conditions: human
Procedure: as §1

| SMILES | melting point | EC50 (rgRSV224 virus) | CC50 at 3 days (in vitro) |
| --- | --- | --- | --- |
| O=c1n(Cc2nc3nc(Cl)ccc3n2CCCCF)c2cnccc2n1-c1nccs1 | 238 °C |  |  |
| CC(C)(C)OC(=O)N1CC(n2c(=O)n(Cc3cc4cc(Cl)ccc4n3CCCS(C)(=O)=O)c3cnccc32)C1 [Compound P1, tert-butyl-3-(3-((5-chloro-1-(3-(methylsulfonyl)propyl)-1H-indol-2-yl)methyl)-2-oxo-2,3-dihydro-1H-imidazo[4,5-c]pyridin-1-yl)azetidine-1-carboxylate] | 195 °C | 5.01 nM | 50100 nM |
| CC(C)(C)OC(=O)N1CC(n2c(=O)n(Cc3cc4cc(Cl)ccc4n3CCCS(C)(=O)=O)c3cc(F)ccc32)C1 [Compound P2, tert-butyl 3-(3-((5-chloro-1-(3-(methylsulfonyl)propyl)-1H-indol-2-yl)methyl)-5-fluoro-2-oxo-2,3-dihydro-1H-benzo[d]imidazol-1-yl)azetidine-1-carboxylate] | 185 °C | 12.6 nM | 10000 nM |
| CS(=O)(=O)CCCn1c(Cn2c(=O)n(C3CN(S(C)(=O)=O)C3)c3ccncc32)cc2cc(Cl)ccc21 [Compound P5, 3-((5-chloro-1-(3-(methylsulfonyl)propyl)-1H-indol-2-yl)methyl)-1-(1-(methylsulfonyl)azetidin-3-yl)-1H-imidazo[4,5-c]pyridin-2(3H)-one] | 240 °C | 1.58 nM | 100000 nM |
| CC(=O)N1CC(n2c(=O)n(Cc3cc4cc(Cl)ccc4n3CCCS(C)(=O)=O)c3cnccc32)C1 [Compound P6, 1-(1-acetylazetidin-3-yl)-3-((5-chloro-1-(3-(methylsulfonyl)propyl)-1H-indol-2-yl)methyl)-1H-imidazo[4,5-c]pyridin-2(3H)-one] | 252 °C | 3.98 nM | > 25100 nM |
| CC(C)(C)n1c(=O)n(Cc2cc3cc(Cl)ccc3n2CCCS(C)(=O)=O)c2cnccc21 [Compound P8, 1-tert-butyl-3-((5-chloro-1-(3-(methylsulfonyl)propyl)-1H-indol-2-yl)methyl)-1H-imidazo[4,5-c]pyridin-2(3H)-one] | 226 °C | 2.51 nM | 39800 nM |
| O=c1n(Cc2cc3cc(Cl)ccc3n2CCCCF)c2cnccc2n1-c1nccs1 [Compound P11, 3-((5-chloro-1-(4-fluorobutyl)-1H-indol-2-yl)methyl)-1-(thiazol-2-yl)-1H-imidazo[4,5-c]pyridin-2(3H)-one] | 240 °C | 12.6 nM | > 25100 nM |
| COc1ccc(-n2c(=O)n(Cc3cc4cc(Cl)ccc4n3CCCC#N)c3cnccc32)cc1OC [Compound P19, 4-(5-chloro-2-((1-(3,4-dimethoxyphenyl)-2-oxo-1H-imidazo[4,5-c]pyridin-3(2H)-yl)methyl)-1H-indol-1-yl)butanenitrile] | 176.51 °C | 0.126 nM | > 100000 nM |
| COc1ccc(-n2c(=O)n(Cc3cc4cc(Cl)ccc4n3CCCC#N)c3cnccc32)c(C)c1 [Compound P20, 4-(5-chloro-2-((1-(4-methoxy-2-methylphenyl)-2-oxo-1H-imidazo[4,5-c]pyridin-3(2H)-yl)methyl)-1H-indol-1-yl)butanenitrile] | 172.59 °C | 0.398 nM | > 100000 nM |
| CC(C)CCn1c(Cn2c(=O)n(-c3nccs3)c3ccncc32)nc2nc(Cl)ccc21 [Compound P22, 3-((5-chloro-1-isopentyl-1H-imidazo[4,5-b]pyridin-2-yl)methyl)-1-(thiazol-2-yl)-1H-imidazo[4,5-c]pyridin-2(3H)-one] | 231.23 °C | 3.98 nM | 25100 nM |
| N#CCCCn1c(Cn2c(=O)n(-c3ccncn3)c3ccncc32)cc2cc(Cl)ccc21 [Compound P24, 4-(5-chloro-2-((2-oxo-1-(pyrimidin-4-yl)-1H-imidazo[4,5-c]pyridin-3(2H)-yl)methyl)-1H-indol-1-yl)butanenitrile] | 229.17 °C | 10 nM | > 50100 nM |
| CC(C)CCn1c(Cn2c(=O)n(-c3nccs3)c3ccc(F)cc32)nc2nc(Cl)ccc21 [Compound P25, 3-((5-chloro-1-isopentyl-1H-imidazo[4,5-b]pyridin-2-yl)methyl)-5-fluoro-1-(thiazol-2-yl)-1H-benzo[d]imidazol-2(3H)-one] | 264.42 °C | 15.8 nM | > 50100 nM |
| CC(C)CCn1c(Cn2c(=O)n(-c3ccncc3F)c3ccncc32)nc2nc(Cl)ccc21 [Compound P26, 3-((5-chloro-1-isopentyl-1H-imidazo[4,5-b]pyridin-2-yl)methyl)-1-(3-fluoropyridin-4-yl)-1H-imidazo[4,5-c]pyridin-2(3H)-one] | 123.79 °C | 25.1 nM | > 100000 nM |
| N#CCCCn1c(Cn2c(=O)n(-c3nccs3)c3ccc(F)cc32)cc2cc(Cl)ccc21 [Compound P27, 4-(5-chloro-2-((6-fluoro-2-oxo-3-(thiazol-2-yl)-2,3-dihydro-1H-benzo[d]imidazol-1-yl)methyl)-1H-indol-1-yl)butanenitrile] | 238.29 °C | 31.6 nM | > 100000 nM |
| COc1ccc(-n2c(=O)n(Cc3cc4cc(Cl)ccc4n3CCCCF)c3cnccc32)cc1 [Compound P32, 3-((5-chloro-1-(4-fluorobutyl)-1H-indol-2-yl)methyl)-1-(4-methoxy-phenyl)-1H-imidazo[4,5-c]pyridin-2(3H)-one] | 163 °C | 3.98 nM | 79400 nM |
| O=c1n(Cc2cc3cc(Cl)ccc3n2CCCCF)c2cnccc2n1-c1ccc(Cl)cc1 [Compound P34, 3-((5-chloro-1-(4-fluorobutyl)-1H-indol-2-yl)methyl)-1-(4-chlorophenyl)-1H-imidazo[4,5-c]pyridin-2(3H)-one] | 168 °C | 31.6 nM | > 100000 nM |
| O=c1n(Cc2cc3cc(Cl)ccc3n2CCCCF)c2cnccc2n1-c1ccncc1 [Compound P44, 3-((5-chloro-1-(4-fluorobutyl)-1H-indol-2-yl)methyl)-1-(pyridin-4-yl)-1H-imidazo[4,5-c]pyridin-2(3H)-one] |  | 1 nM | > 100000 nM |
| COc1ccc(-n2c(=O)n(Cc3cc4cc(Cl)ccc4n3CCCC#N)c3cnccc32)c(F)c1 [Compound P45, 4-(5-chloro-2-((1-(2-fluoro-4-methoxyphenyl)-2-oxo-1H-imidazo[4,5-c]pyridin-3(2H)-yl)methyl)-1H-indol-1-yl)butanenitrile] |  | 1 nM | 15800 nM |
| Cc1ccc(-n2c(=O)n(Cc3cc4cc(Cl)ccc4n3CCCC#N)c3cnccc32)cc1 [Compound P46, 4-(5-chloro-2-((2-oxo-1-p-tolyl-1H-imidazo[4,5-c]pyridin-3(2H)-yl)methyl)-1H-indol-1-yl)butanenitrile] |  | 1.26 nM | > 100000 nM |
| COc1ccc(-n2c(=O)n(Cc3cc4cc(Cl)ccc4n3CCCC#N)c3cnccc32)c(OC)c1 [Compound P47, 4-(5-chloro-2-((1-(2,4-dimethoxyphenyl)-2-oxo-1H-imidazo[4,5-c]pyridin-3(2H)-yl)methyl)-1H-indol-1-yl)butanenitrile] |  | 1.58 nM | > 100000 nM |
| N#CCCCn1c(Cn2c(=O)n(-c3ccncc3)c3ccncc32)cc2cc(Cl)ccc21 [Compound P48, 4-(5-chloro-2-((2-oxo-1-(pyridin-4-yl)-1H-imidazo[4,5-c]pyridin-3(2H)-yl)methyl)-1H-indol-1-yl)butanenitrile] |  | 2.51 nM | > 100000 nM |
| N#CCCCn1c(Cn2c(=O)n(-c3nccs3)c3ccncc32)cc2cc(Cl)ccc21 [Compound P49, 4-(5-chloro-2-((2-oxo-1-(thiazol-2-yl)-1H-imidazo[4,5-c]pyridin-3(2H)-yl)methyl)-1H-indol-1-yl)butanenitrile] |  | 6.31 nM | > 25100 nM |
| COC(=O)c1ccc(-n2c(=O)n(Cc3cc4cc(Cl)ccc4n3CCCC#N)c3cnccc32)cc1 [Compound P51, methyl 4-(3-((5-chloro-1-(3-cyanopropyl)-1H-indol-2-yl)methyl)-2-oxo-2,3-dihydro-1H-imidazo[4,5-c]pyridin-1-yl)benzoate] |  | 0.794 nM | 39800 nM |
| N#CCCCn1c(Cn2c(=O)n(-c3ccc(C(=O)O)cc3)c3ccncc32)cc2cc(Cl)ccc21 [Compound P52, 4-(3-((5-chloro-1-(3-cyanopropyl)-1H-indol-2-yl)methyl)-2-oxo-2,3-dihydro-1H-imidazo[4,5-c]pyridin-1-yl)benzoic acid] |  | 0.501 nM | > 25100 nM |
| N#CCCCn1c(Cn2c(=O)n(-c3ccc(C(=O)NC4CC4)cc3)c3ccncc32)cc2cc(Cl)ccc21 [Compound P53, 4-(3-((5-chloro-1-(3-cyanopropyl)-1H-indol-2-yl)methyl)-2-oxo-2,3-dihydro-1H-imidazo[4,5-c]pyridin-1-yl)-N-cyclopropylbenzamide] |  | 0.501 nM | 25100 nM |
